Test results reported in US20160367623A1, “AGONISTS OF GUANYLATE CYCLASE USEFUL FOR THE TREATMENT OF GASTROINTESTINAL DISORDERS, INFLAMMATION, CANCER AND OTHER DISORDERS” (priority 2015, published 2016).
Bridge positions count the residues as written; N and C are the ends. Ends that are not written are not given here.

Test system: patients with chronic idiopathic constipation (CIC)
Assay: Second phase 3 CIC trial: change from baseline in CSBMs/week
Assay type: in vivo, human
Conditions: MRA
[1] = Week 8, 6 mg, ITT Population-Excluding Duplicate Patients
[2] = Week 9, 3 mg, ITT Population-Excluding Duplicate Patients
[3] = Week 9, 6 mg, ITT Population-Excluding Duplicate Patients
[4] = Week 10, 3 mg, ITT Population-Excluding Duplicate Patients
[5] = Week 10, 6 mg, ITT Population-Excluding Duplicate Patients
[6] = Week 11, 3 mg, ITT Population-Excluding Duplicate Patients
[7] = Week 11, 6 mg, ITT Population-Excluding Duplicate Patients
[8] = Week 12, 3 mg, ITT Population-Excluding Duplicate Patients
[9] = Week 12, 6 mg, ITT Population-Excluding Duplicate Patients
[10] = overall average estimate across the 12-week treatment period, 3 mg, ITT Population
[11] = overall average estimate across the 12-week treatment period, 3 mg, ITT Population-Excluding Duplicate Patients
[12] = overall average estimate across the 12-week treatment period, 6 mg, ITT Population
[13] = overall average estimate across the 12-week treatment period, 6 mg, ITT Population-Excluding Duplicate Patients

For “Asn^1-Asp^2-Glu^3-Cys^4-Glu^5-Leu^6-Cys^7-Val^8-Asn^9-Val^10-Ala^11-Cys^12-Thr^13-Gly^14-Cys^15-Leu^16 (NDECELCVNVACTGCL; disulfide 4-12, 7-15) [Plecanatide, uroguanylin analogue, guanylate cyclase-C agonist; (C4:C12, C7:C15) bicycle peptide]”, the “Change from Baseline in CSBMs, Mean (SD)” value (Week 8, 6 mg, ITT Population) was 2.36 (3.243) CSBMs/week, the “Change from Baseline in CSBMs, Difference from Placebo” value (“Change … Difference from Placebo” below) [1] was 0.85 CSBMs/week and the “Change from Baseline in CSBMs, LS Mean (SE)” value (from here on “Change from Baseline … (SE)”) [1] was 2.35 (0.155) CSBMs/week. For the same substance, the “Change from Baseline in CSBMs, Mean (SD)” value [1] was 2.37 (3.250) CSBMs/week, the “Change from Baseline in CSBMs, Mean (SD)” value (Week 8, Active Combined, ITT Population-Excluding Duplicate Patients) was 2.52 (3.510) CSBMs/week and the “Change from Baseline in CSBMs, Mean (SD)” value (Week 8, Active Combined, ITT Population) was 2.51 (3.498) CSBMs/week. The “Change … Difference from Placebo” value (Week 9, 3 mg, ITT Population) was 0.94 CSBMs/week, the “Change from Baseline … (SE)” value (Week 9, 3 mg, ITT Population) was 2.49 (0.156) CSBMs/week and the “Change from Baseline in CSBMs, Mean (SD)” value (Week 9, 3 mg, ITT Population) was 2.59 (3.459) CSBMs/week. For the same substance, the “Change … Difference from Placebo” value [2] was 0.95 CSBMs/week, the “Change from Baseline … (SE)” value [2] was 2.53 (0.159) CSBMs/week and the “Change from Baseline in CSBMs, Mean (SD)” value [2] was 2.62 (3.479) CSBMs/week. The “Change … Difference from Placebo” value (Week 9, 6 mg, ITT Population) was 0.81 CSBMs/week, the “Change from Baseline … (SE)” value (Week 9, 6 mg, ITT Population) was 2.37 (0.154) CSBMs/week and the “Change from Baseline in CSBMs, Mean (SD)” value (Week 9, 6 mg, ITT Population) was 2.38 (3.176) CSBMs/week. The “Change … Difference from Placebo” value [3] was 0.81 CSBMs/week, the “Change from Baseline … (SE)” value [3] was 2.39 (0.156) CSBMs/week and the “Change from Baseline in CSBMs, Mean (SD)” value [3] was 2.39 (3.184) CSBMs/week. The “Change from Baseline in CSBMs, Mean (SD)” value (Week 9, Active Combined, ITT Population-Excluding Duplicate Patients) was 2.50 (3.329) CSBMs/week, the “Change from Baseline in CSBMs, Mean (SD)” value (Week 9, Active Combined, ITT Population) was 2.48 (3.316) CSBMs/week and the “Change … Difference from Placebo” value (Week 10, 3 mg, ITT Population) was 0.85 CSBMs/week. For the same substance, the “Change from Baseline … (SE)” value (Week 10, 3 mg, ITT Population) was 2.49 (0.156) CSBMs/week, the “Change from Baseline in CSBMs, Mean (SD)” value (Week 10, 3 mg, ITT Population) was 2.63 (3.617) CSBMs/week and the “Change … Difference from Placebo” value [4] was 0.87 CSBMs/week. The “Change from Baseline … (SE)” value [4] was 2.52 (0.159) CSBMs/week, the “Change from Baseline in CSBMs, Mean (SD)” value [4] was 2.65 (3.637) CSBMs/week and the “Change … Difference from Placebo” value (Week 10, 6 mg, ITT Population) was 0.86 CSBMs/week. The “Change from Baseline … (SE)” value (Week 10, 6 mg, ITT Population) was 2.50 (0.154) CSBMs/week, the “Change from Baseline in CSBMs, Mean (SD)” value (Week 10, 6 mg, ITT Population) was 2.51 (3.288) CSBMs/week and the “Change … Difference from Placebo” value [5] was 0.87 CSBMs/week. For the same substance, the “Change from Baseline … (SE)” value [5] was 2.52 (0.156) CSBMs/week, the “Change from Baseline in CSBMs, Mean (SD)” value [5] was 2.51 (3.288) CSBMs/week and the “Change from Baseline in CSBMs, Mean (SD)” value (Week 10, Active Combined, ITT Population-Excluding Duplicate Patients) was 2.58 (3.458) CSBMs/week. For the same substance, the “Change from Baseline in CSBMs, Mean (SD)” value (Week 10, Active Combined, ITT Population) was 2.57 (3.449) CSBMs/week, the “Change … Difference from Placebo” value (Week 11, 3 mg, ITT Population) was 0.96 CSBMs/week and the “Change from Baseline … (SE)” value (Week 11, 3 mg, ITT Population) was 2.56 (0.157) CSBMs/week. For the same substance, the “Change from Baseline in CSBMs, Mean (SD)” value (Week 11, 3 mg, ITT Population) was 2.71 (3.710) CSBMs/week, the “Change … Difference from Placebo” value [6] was 0.99 CSBMs/week and the “Change from Baseline … (SE)” value [6] was 2.61 (0.159) CSBMs/week. The “Change from Baseline in CSBMs, Mean (SD)” value [6] was 2.75 (3.728) CSBMs/week, the “Change … Difference from Placebo” value (Week 11, 6 mg, ITT Population) was 0.80 CSBMs/week and the “Change from Baseline … (SE)” value (Week 11, 6 mg, ITT Population) was 2.40 (0.155) CSBMs/week. The “Change from Baseline in CSBMs, Mean (SD)” value (Week 11, 6 mg, ITT Population) was 2.44 (3.276) CSBMs/week, the “Change … Difference from Placebo” value [7] was 0.79 CSBMs/week and the “Change from Baseline … (SE)” value [7] was 2.41 (0.156) CSBMs/week. For the same substance, the “Change from Baseline in CSBMs, Mean (SD)” value [7] was 2.43 (3.266) CSBMs/week, the “Change from Baseline in CSBMs, Mean (SD)” value (Week 11, Active Combined, ITT Population-Excluding Duplicate Patients) was 2.58 (3.498) CSBMs/week and the “Change from Baseline in CSBMs, Mean (SD)” value (Week 11, Active Combined, ITT Population) was 2.57 (3.493) CSBMs/week. For the same substance, the “Change … Difference from Placebo” value (Week 12, 3 mg, ITT Population) was 0.94 CSBMs/week, the “Change from Baseline … (SE)” value (Week 12, 3 mg, ITT Population) was 2.60 (0.157) CSBMs/week and the “Change from Baseline in CSBMs, Mean (SD)” value (Week 12, 3 mg, ITT Population) was 2.76 (3.785) CSBMs/week. The “Change … Difference from Placebo” value [8] was 0.97 CSBMs/week, the “Change from Baseline … (SE)” value [8] was 2.64 (0.159) CSBMs/week and the “Change from Baseline in CSBMs, Mean (SD)” value [8] was 2.78 (3.803) CSBMs/week. For the same substance, the “Change … Difference from Placebo” value (Week 12, 6 mg, ITT Population) was 0.86 CSBMs/week, the “Change from Baseline … (SE)” value (Week 12, 6 mg, ITT Population) was 2.51 (0.155) CSBMs/week and the “Change from Baseline in CSBMs, Mean (SD)” value (Week 12, 6 mg, ITT Population) was 2.57 (3.409) CSBMs/week. The “Change … Difference from Placebo” value [9] was 0.84 CSBMs/week, the “Change from Baseline … (SE)” value [9] was 2.51 (0.157) CSBMs/week and the “Change from Baseline in CSBMs, Mean (SD)” value [9] was 2.56 (3.366) CSBMs/week. For the same substance, the “Change from Baseline in CSBMs, Mean (SD)” value (Week 12, Active Combined, ITT Population-Excluding Duplicate Patients) was 2.67 (3.585) CSBMs/week, the “Change from Baseline in CSBMs, Mean (SD)” value (Week 12, Active Combined, ITT Population) was 2.66 (3.596) CSBMs/week and the “Change … Difference from Placebo” value [10] was 0.90 CSBMs/week. The “Change from Baseline … (SE)” value [10] was 2.27 (0.135) CSBMs/week, the “Change … Difference from Placebo” value [11] was 0.91 CSBMs/week and the “Change from Baseline … (SE)” value [11] was 2.30 (0.137) CSBMs/week. For the same substance, the “Change … Difference from Placebo” value [12] was 0.79 CSBMs/week, the “Change from Baseline … (SE)” value [12] was 2.16 (0.133) CSBMs/week and the “Change … Difference from Placebo” value [13] was 0.79 CSBMs/week. For the same substance, the “Change from Baseline … (SE)” value [13] was 2.18 (0.135) CSBMs/week.
